Test results taken from patent EP2835640A1, “Method for predicting the skin sensitizing activity of a compound” (Academisch Ziekenhuis Leiden HODN Leids Universitair …, priority 2013, dated 2015).
Residues, ends and D or L forms follow the SMILES beside them. *: point of attachment. Cbz = O=C(OCc1ccccc1)*

What was measured:
NEMs = test: MTT cell viability assay, epidermal model; conditions: topical exposure
Description: The LEMs and the NEMs were constructed by seeding 200.000 cells on insert filters (12 wells plate, polyester membrane, Costar) in Dermalife K medium including lifefactors (Lifeline Cell Technology, Walkersville, MD) until full density was reached. […] Thereafter they were cultured in CNT medium (basal medium plus supplement kit, CellnTec, Bern, Switzerland). […] Medium was refreshed every 2 days. LEMs and NEMs were air-exposed for 12 days at 37 °C and 7.3% CO2 prior to analysis.
Twelve days air-exposed LEMs or NEMs were covered with a 11 mm filter paper disc (Finn Chamber, Phoenix, USA). Chemicals with different doses were applied onto the filters and incubated for 24 h and thereafter washed away with PBS. LEMs or NEMs were then incubated with thiazolyl blue tetrazolium bromide (MTT), (Sigma). MTT stock of 5 mg/ml PBS (filter sterilized) was diluted to a final concentration of 1 mg/ml in colourless DMEM medium. MTT medium was added to the cell cultures and incubated for 3 h at 37°C. Viable cells were then allowed to reduce the tetrazolium dye to its insoluble formazan, which has a purple colour. Therefore, after 3 hours, the MTT was removed and washed away with PBS. After drying, the formazan was dissolved in 2ml of isopropanol overnight at room temperature. Absorbance was measured at 570 nm using a plate reader (TECAN infinite F200) in order to calculate the cell viability.

[1] = skin sensitizing potency; cited from earlier work
Nrf2 [2] = test: Nuclear fractionation and Western blot, N/TERT monolayer cultures; assay type: cell-based, human
Text: (§1) Nuclear fractions of monolayer cultures and reconstructed epidermis were isolate using a Nuclear extract kit (Active motif, Carlsbad, CA) according to the manufacturer's protocol. Nuclear fractions were subjected to Western blot analysis.
(§2) Monolayer cells were lysed in M-Per buffer (Thermo Scientific, Rockford, USA), reconstructed epidermis was cut in pieces and lysed in T-Per lysis buffer (Thermo Scientific, Rockford, USA) both supplemented with protease inhibitor cocktail EDTA-free and HALTTM phosphatase inhibitors (Thermo Scientific). Cell lysates were measured using the BCATM protein assay kit (Thermo Scientific). Equal amounts of proteins were separated by SDS-page. Proteins were transferred onto PVDF- transfer membranes (Thermo Scientific). […] After four times washing with PBST, proteins were detected by enhanced chemi-luminescence (Super signal West femto (Pierce Thermo Scientific, Rockford, USA) and visualized by exposure to X-ray film (Fujifilm Europe GmbH, Düsseldorf, Germany).
(§3) Next we investigated whether Nrf2 expression could be stabilized by inhibiting the proteasome that is responsible for a constitutive degradation of Nrf2. […] Although the Nrf2 translocation was clearly visible, we used a second approach enabling quantification of the amount of translocated Nrf2. […]

Nrf2 [3] = test: Nuclear fractionation and Western blot, monolayer primary keratinocytes; assay type: cell-based, human
Text: as §1, §2, §3

Nrf2 [4] = test: Nrf2 nuclear translocation by immunohistochemical analysis, NEMs; assay type: cell-based, human; conditions: NEMs 12 days air-exposed, 4 h treatment
Monolayer keratinocytes = test: WST-1 cell viability assay, monolayers; assay type: cell-based, human; conditions: WST-1, 24 h of treatment
Description: Cell viability of monolayers was measured using WST-1 assay (Roche diagnostics, Mannheim, Germany). Briefly, cells were seeded in 96-well flat-bottom plates (Greiner Bio-One, Frickenhausen, Germany) in 100 µl of culture medium 24-48 h prior to chemical treatment. After 24 h of treatment with an irritant or sensitizer, 10 µl of WST-1 reagent was added and plates were further incubated up to 3 h at 37°C. […] Monolayer keratinocytes were exposed to DNCB (10 µM) and SDS (80µM) at 80% cell viability concentrations.

Nrf2 dependent genes [5] = test: Quantitative PCR of gene expression, NEMs; assay type: cell-based, human; conditions: 4 h, mRNA
Description: Medium was refreshed every 2 days.
(§4) Total RNA was prepared using RNeasy mini kit (Qiagen) according to the manufacturer's protocol. RNA was quantified using a Nanodrop ND-1000 spectrophotometer. First- strand cDNA synthesis was derived from 1 ug of total RNA using the iscript cDNA synthesis kit (Biorad) according to the manufacturer's protocol. Primers were tested in normal KC cDNA. Stability of reference genes was analyzed with the GeNorm method (Vandesompele et al., 2002). Expression analysis was performed with the BioRad software (iQ5) and was based on the delta delta Ct method with the reference genes that were most stably expressed according to the GeNorm analysis.
(§5) Expression levels of the following genes were measured: HMOX-1 (Hemeoxygenase-1), GCLM (Glutamate-cysteine ligase modifier subunit), TXNRD1 (Thioredoxin reductase 1), OSGIN-1 (oxidative stress induced growth inhibitor 1), B2M (Beta-2 microglobulin), GUSB (Glucuronidase beta) and TBP (TATA binding protein). Quantitative real-time PCR was determined by using the following primer sets: • 5'-[…]-'3 (HMOX-1), • 5'-[…]-'3 GCLM), • 5'-[…]-'3 (TXNRD1), • 5'- TGCTGCAGAGGAAGCTCAC-'3 (OSGIN1), • 5'-[…]-'3 (B2M), • 5'-[…]-'3 (GUSB), • 5'-[…]-'3 (TBP).
(§6) Real-Time PCRs were performed in 10 µl reaction volumes using the MylQ system and SYBR Green PCR Master- mix (Biorad) according to the manufacturer's protocol. […]

Nrf2 dependent genes [6] = test: Quantitative PCR of gene expression, monolayer primary keratinocytes; assay type: cell-based, human; conditions: 4 h, mRNA
Description: as §4, §5, §6

Nrf2 dependent genes [7] = test: Quantitative PCR of gene expression, N/TERT monolayer cultures; assay type: cell-based, human; conditions: 4 h, mRNA
Description: as §4, §5
Real-Time PCRs were performed in 10 µl reaction volumes using the MylQ system and SYBR Green PCR Master- mix (Biorad) according to the manufacturer's protocol.
The PCR cycles were: 3 minutes at 95 °C to activate the polymerase, 40 cycles of 20 seconds at 95 °C and 40 seconds at 60 °C, followed by the generation of a melt curve.
All qPCR values were averaged relative to the three different reference genes: B2M, GUSB, TBP. For each data point, PCRs were performed in duplicate and values represent means ± standard deviation.

CC=Cc1ccc(O)c(OC)c1 [IsoEu, Isoeugenol]
concentrations of 80 - 85% CV (NEMs): 15000 µM
Potency category [1]: moderate

Nc1ccc(N)cc1 [PPD, p-Phenylenediamine]
concentrations of 80 - 85% CV (NEMs): 35000 µM

CC(C)C[C@@H](C=O)NC(=O)[C@H](CC(C)C)NC(=O)[C@H](CC(C)C)NC(=O)OCc1ccccc1 [MG132] (Cbz-Leu-Leu-Leu-aldehyde)
Nrf2 protein levels in nuclear lysates (Nrf2 [2]): elevated levels of Nrf2
Nrf2 protein levels in nuclear lysates (Nrf2 [3]): elevated levels of Nrf2

CCCCCCCCCCCCOS(=O)(=O)[O-].[Na+] [SDS, Sodium Dodecyl Sulfate]
Nrf2 in the nuclei (Nrf2 [4]): Nrf2 was only translocated to the nucleus after DNCB treatment
80% cell viability concentrations (Monolayer keratinocytes): 80 µM

O=[N+]([O-])c1ccc(Cl)c([N+](=O)[O-])c1 [DNCB, 2,4-dinitrochlorobenzene]
Expression of GLCM (Nrf2 dependent genes [5]): approx. 3,2 fold
Expression of OSGIN-1 (Nrf2 dependent genes [5]): approx. 2 fold
Expression of GCLM (Nrf2 dependent genes [6]): approx. 1,2 fold
Expression of OSGIN-1 (Nrf2 dependent genes [6]): approx. 1,2 fold
80% cell viability concentrations (Monolayer keratinocytes): 10 µM
concentrations of 80 - 85% CV (NEMs): 500 µM
Expression of GCLM (Nrf2 dependent genes [7]): approx. 1,2 fold
Expression of OSGIN-1 (Nrf2 dependent genes [7]): approx. 1,2 fold
Expression of TXNRD-1 (Nrf2 dependent genes [7]): approx. 1,2 fold
